The values below come from patent US7169756B2, “Streptogramin antibiotics” (priority 2005, dated 2007).

In brackets after ≈: the same amount, converted by molar mass. Where two headings read alike, the source gives them in different places. Numbered stars: 1 amine (or outer) side, 2 acyl side, 3 side chain; on linkers, the order of the positions; unused ones are H or OH. Bridge positions count the residues as written; N and C are the ends. Square brackets hold non-standard residues; d marks the D form. Peptide text beside a SMILES is read from it. * marks the point of attachment. X1 = O=C1C[C@@H](C(=O)[*:2])N([*:1])C[C@H]1CS[C@@H]1CN2CCC1CC2; NMePhe(4-NMe2) = CN[C@@H](Cc1ccc(N(C)C)cc1)C(=O)O; Picolinoyl(3-OH) = O=C(c1ncccc1O)*; Phg = N[C@H](C(=O)O)c1ccccc1; Orn = NCCC[C@H](N)C(=O)O; dAbu = CC[C@@H](N)C(=O)O; Dap = NC[C@H](N)C(=O)O Bounds are passed on as bounds.

The test system of experiment [1] is Escherichia coli BAS901. Briefly: disk assay, zone of growth inhibition. The experiment is classed as cell-based. The conditions noted are these: Escherichia coli BAS901, hyperpermeable, 16 hr at 37° C. On the procedure:
Partially purified material from these reactions was used to test their antibiotic properties in disk diffusion susceptibility assays using E. coli BAS901.
(§1) The antibiotic activity of the peptides synthesized in this study was initially assayed using a disk assay where samples were applied to sterile paper disks placed on a fresh lawn of bacterial culture on appropriate agar plates as required by the organism. These were then incubated for 16 hr at 37° C. and the zone of growth inhibition surrounding the disks recorded. For quantitative assessment of antibiotic activity in liquid culture, the minimal inhibitory concentration (MIC) of peptides was determined by serial dilution studies. The peptides and standard antibiotics were dissolved in DMSO and the final concentration of DMSO in the liquid cultures was 5%. Both S. aureus RN4220 and E. coli BAS901 were able to grow efficiently at this level of DMSO.
(§2) Crude material from the initial synthesis reactions was used to test the potential of the analogues as antibiotics in susceptibility assays where a solution of the compound was placed on a paper disk on a lawn of bacteria. As described above, E. coli BAS901 is deficient in the Imp/OstA protein, an outer membrane protein, involved in cell envelope biogenesis (1, 5). […] These were then incubated for 16 hrs at 37° C. and the zone of growth inhibition surrounding the disks recorded.

In experiment [2] the test system is E. coli BAS901/pUC19. The experiment in a line: disk assay, zone of growth inhibition. The experiment is classed as cell-based, Escherichia coli.
Excerpt: (§3) A hyperpermeable E. coli strain, E. coli BAS901, harboring a plasmid constitutively expressing Vgb was created for in vivo studies. The plasmids pVGB, described previously in [14], and […] were digested with Xbal and BamHI, to yield an approximately 1 kb fragment containing a ribosomal binding site upstream of vgb, and linearized pUC19 backbone, respectively. The vgb fragment was then subcloned into the linearized pUC19 backbone downstream of pLac yielding pUC19-VGB. Both pUC19-VGB and pUC19 were transformed E. coli BAS901.
as §1
(§4) Crude material from the initial synthesis reactions was used to test the potential of the analogues as antibiotics in susceptibility assays where a solution of the compound was placed on a paper disk on a lawn of bacteria. As described above, E. coli BAS901 is deficient in the Imp/OstA protein, an outer membrane protein, involved in cell envelope biogenesis (1, 5). […] The antibiotic activity of the peptides synthesized in this study was initially assayed using a disk assay where samples were applied to sterile paper disks placed on a fresh lawn of bacterial culture on Tryptic Soya, Luria Broth, or Brain Heart Infusion Agar plates. These were then incubated for 16 hrs at 37° C. and the zone of growth inhibition surrounding the disks recorded.

The subject of experiment [3] is E. coli BAS901/pUCVgb. The experiment in a line: disk assay, zone of growth inhibition. Format: cell-based, Escherichia coli. To be noted: Vgb constitutively expressed.
Excerpt: as §3, §1, §4

The subject of experiment [4] is Bacillus subtilis 1A752. The experiment in a line: disk assay, zone of growth inhibition. The experiment is classed as cell-based. How it is done:
as §1, §4

Experiment [5] deals with Enterococcus faecium CP54-32. The experiment in a line: disk assay, zone of growth inhibition. The experiment is classed as cell-based. How it is done: as §1, §4
The test system of experiment [6] is Micrococcus luteus. The experiment in a line: disk assay, zone of growth inhibition. Format: cell-based. On the procedure: as §1, §4
In experiment [7] the test system is B. subtilis L5706. Briefly: disk assay, zone of growth inhibition. Format: cell-based, Bacillus subtilis. On the procedure: as §1, §2
Experiment [8] relates to B. subtilis W23. The experiment in a line: disk assay, zone of growth inhibition. Format: cell-based, Bacillus subtilis. How it is done: as §1, §2
The test system of experiment [9] is S. saprophyticus (ATCC 15305). The experiment in a line: disk assay, zone of growth inhibition. The experiment is classed as cell-based, Staphylococcus saprophyticus. How it is done: as §1, §2
In experiment [10] the test system is E. coli BAS901/pUC19ermB. Briefly: microbe, parasite or virus in culture. Format: cell-based, Escherichia coli. The source says:
In order to test the effects of 5 against E. coli BAS901 harboring ermB, the 23S rRNA methyltransferase, the plasmid pJIM2246 ΩermB [13] was purified from Staphylococcus aureus RN4220/pJIM2246 ΩermB. ErmB was subsequently amplified from pJIM2246 ΩermB via polymerase chain reaction using primers 5′-[…] AND 5′-[…] (engineered restriction enzyme sites are underlined). The amplified product was subcloned into pCR4Blunt-TOPO (Invitrogen) and transformed into E. coli XL10 GOLD, resulting in ermB being positioned in frame with the lacZ gene. This construct, designated pTOPOerm, was then used as template in the reamplification of ermB using a new forward primer containing a strong ribosomal binding consensus sequence (shown in italics); 5-[…]. […]
The antibiotic activity of the peptides synthesized in this study was initially assayed using a disk assay where samples were applied to sterile paper disks placed on a fresh lawn of bacterial culture on appropriate agar plates as required by the organism. These were then incubated for 16 hr at 37° C. and the zone of growth inhibition surrounding the disks recorded. For quantitative assessment of antibiotic activity in liquid culture, the minimal inhibitory concentration (MIC) of peptides was determined by serial dilution studies. […]

In experiment [11] the test system is E. coli BAS901/pUC19. The experiment in a line: microbe, parasite or virus in culture. The experiment is classed as cell-based, Escherichia coli.
Excerpt: as §3, §1

The subject of experiment [12] is E. coli BAS901/pUCVgb. The experiment in a line: microbe, parasite or virus in culture. Format: cell-based, Escherichia coli.
Excerpt: as §3, §1

For experiment [13], the target named is T1, Vgb (Staphylococcus aureus, UniProt P17978).
T1 construct: made in house
T1 sequence (P17978 whole entry): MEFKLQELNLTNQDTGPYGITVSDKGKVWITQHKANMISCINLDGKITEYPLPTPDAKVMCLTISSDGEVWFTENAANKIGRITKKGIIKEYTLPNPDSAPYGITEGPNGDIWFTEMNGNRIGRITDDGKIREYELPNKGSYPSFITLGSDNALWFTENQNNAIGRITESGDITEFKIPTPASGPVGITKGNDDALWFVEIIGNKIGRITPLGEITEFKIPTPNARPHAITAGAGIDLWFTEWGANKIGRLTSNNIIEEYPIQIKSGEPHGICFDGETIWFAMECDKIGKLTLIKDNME
Briefly: inhibition of the streptogramin inactivating enzyme Vgb. The experiment is classed as biochemical. The conditions noted are these: concentrations of up to 0.4 mM. On the procedure:
On-resin chemical cyclization of 5 provided sufficient material for more extensive analysis of antibacterial activity and investigation of its ability to inhibit the streptogramin inactivating enzyme Vgb. This enzyme however was insensitive to 5 in concentrations of up to 0.4 mM. […] Regardless of the actual mechanism, the design of these streptogramin-tyrocidine chimeras of the present invention result in antibiotics that are not recognized by a streptogramin inactivation enzyme.

For experiment [14], the system named is B. subtilis 1A752. The experiment in a line: checker-board synergy test with dalfopristin. Format: cell-based, Bacillus subtilis. To be noted: microtiter plates, checker-board technique. The text has this:
(§5) Quinupristin and dalfopristin act in a synergistic manner.

Experiment [15] deals with E. coli BAS901. The experiment in a line: checker-board synergy test with dalfopristin. The experiment is classed as cell-based, Escherichia coli. To be noted: microtiter plates, checker-board technique.
Excerpt: as §5

For experiment [16], the system named is E. coli BAS901. The experiment in a line: bacteriostatic or bactericidal action. Format: cell-based, Escherichia coli.
Experiment [17] has as its system B. subtilis 1A752. Briefly: bacteriostatic or bactericidal action. Format: cell-based, Bacillus subtilis.
Experiment [18] deals with Bacillus subtilis. The experiment in a line: growth inhibition, text summary of disk assay. Format: cell-based. The conditions noted are these: strain not given. How it is done:
as §1, §4

Experiment [19] has as its system Enterococcus faecalis. Briefly: growth inhibition, text summary of disk assay. The experiment is classed as cell-based. To be noted: strain not given. On the procedure:
as §1, §4

The test system of experiment [20] is Staphylococcus epidermidis. Briefly: growth inhibition, text summary of disk assay. Format: cell-based. The conditions noted are these: strain not given. On the procedure:
as §1, §4

The test system of experiment [21] is Streptococcus pneumoniae. The experiment in a line: growth inhibition, text summary of disk assay. The experiment is classed as cell-based. To be noted: strain not given. On the procedure:
as §1, §4

The mark [22] stands for this setting: E. coli BAS901/pUCVgb (expressing Vgb).

In the case of `CC[C@H]1NC(=O)[C@@H](NC(=O)c2ncccc2O)[C@@H](C)OC(=O)[C@H](c2ccccc2)NC(=O)[C@@H]2CC(=O)[C@H](CS[C@@H]3CN4CCC3CC4)CN2C(=O)[C@H](Cc2ccc(N(C)C)cc2)N(C)C(=O)[C@@H]2CCCN2C1=O` [Quinupristin, quinupristin, reference compound] ({Picolinoyl(3-OH)}-T[dAbu]P[NMePhe(4-NMe2)][X1][Phg]; ester 1-C), the “Zone of Inhibition” value in experiment [1] is 2.2 cm; in experiment [2], 2.2 cm; in [2] (listed as quinupristin), “exhibit a zone of inhibition”; in experiment [3] it was “n.i.^a”; in experiment [3] (listed as quinupristin) it was “inactivated”; in experiment [4] it was 1.8 cm. Besides, the “Zone of Inhibition” value in [5] is reported as 1.8 cm; in experiment [6], 2.7 cm; in experiment [7] it was 2.1 cm; in experiment [8], 2.1 cm; in experiment [9], 2.3 cm. The MIC was 16 µg/mL (≈ 15.7 µM) in [10] (Escherichia coli, BAS901/PUC19ERMB); 4 µg/mL (≈ 3.91 µM) in experiment [11] (Escherichia coli, BAS901/PUC19); “increased significantly” in [12] (setting [22]); over 256 µg/mL in experiment [12] (Escherichia coli, BAS901/PUCVGB).

With `CC(C)C[C@@H]1NC(=O)[C@H](CCCN)NC(=O)[C@H]([C@@H](C)O)NC(=O)[C@@H](NC(=O)c2ncccc2O)CNC(=O)[C@H](Cc2ccccc2)NC(=O)[C@@H]2CCCN2C(=O)[C@@H](Cc2ccccc2)NC1=O` [Compound 5] ({Picolinoyl(3-OH)}-[Dap]T[Orn]L[dF]PF; lactam 1-C), in experiment [3], the “Zone of Inhibition” value was “still exhibit zones of inhibition”. Besides, the MIC in experiment [10] (E. coli BAS901/pUC19ermB (Erm methyltransferase)) is 32 µg/mL (≈ 34.5 µM); in experiment [11] (E. coli BAS901/pUC19 (control), 5% DMSO), 32 µg/mL (≈ 34.5 µM); in experiment [12] (setting [22]), 32 µg/mL (≈ 34.5 µM). Besides, in [13], the “inhibition of Vgb” value is “insensitive”. In addition, the synergy with dalfopristin result is “additive, not synergistic” in [14] and “additive, not synergistic” in [15]. The bacteriostatic or bactericidal result is “bacteriostatic and not bactericidal” in experiment [16]; “bacteriostatic and not bactericidal” in experiment [17]. Moreover, the growth inhibition activity entry in experiment [18], in experiment [19], in experiment [20] and in experiment [21] was “active” each time.
